Consider two compounds from US20210252036A1, “METHODS OF TREATING CANCER BY INHIBITING UBIQUITIN CONJUGATING ENZYME E2 K (UBE2K)” (Berg LLC, priority 2018, published 2021).

For assay [1], the system named is SKHEP1 hepatocellular carcinoma cells. The assay can be described thus: Cell number/viability by Cell Titer Fluor after siRNA transfection. Type of assay: cell-based. To be noted: Homo sapiens, SK-HEP1, doxorubicin 72 h. As to the method: (§1) For initial validation studies, UBE2K was transiently knocked down using an siRNA mediated approach in Miapaca2, HepG2, SKHEP1, Hep3B, MDAMB231, SKBR3, T47D and BT549 cells. A non-targeting (NT) siRNA sequence was used as a control. Samples for confirmation of knock down at transcript and protein level were harvested 24 and 96 h post transfection, and the effect of UBE2K transient knock down was assessed on cell viability/cell number using Cell Titer Fluor at 96 h post transfection. In parallel, the effect of siRNA mediated UBE2K knock down on doxorubicin (cell death causing agent) sensitivity was assessed in the above mentioned cell lines. Cell were exposed to doxorubicin for 72 h beginning 24 h post transfection.

In a further assay the test system is BT549 cells. The assay is described as above. Type of assay: cell-based. To be noted: Homo sapiens, BT-549, doxorubicin 72 h. As to the method: as §1
Another assay deals with T47D cells. Described as above. Type of assay: cell-based. To be noted: Homo sapiens, doxorubicin 72 h. As to the method: as §1
Another assay has as its target T1, UBE2K (Homo sapiens, UniProt P61086).
T1 sequence (P61086 1-200): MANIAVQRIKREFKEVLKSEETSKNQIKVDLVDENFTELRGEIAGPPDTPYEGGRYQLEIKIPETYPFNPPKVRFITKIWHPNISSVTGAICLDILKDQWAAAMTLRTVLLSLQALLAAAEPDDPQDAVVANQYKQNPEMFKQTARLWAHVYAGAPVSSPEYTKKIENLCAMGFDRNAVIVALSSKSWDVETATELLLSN
The conditions noted are these: Strickson et al., 2013; cited from earlier work.

Where two headings read alike, the source gives them in different places.

Consider `COc1cccc2c1C(=O)c1c(O)c3c(c(O)c1C2=O)C[C@@](O)(C(=O)CO)C[C@@H]3O[C@H]1C[C@H](N)[C@H](O)[C@H](C)O1` [doxorubicin], for which the IC50 in assay [1] (SKHEP1, UBE2K siRNA knockdown, read-out: UBE2K siRNA 95% CI IC50) was in the range of 10.1 to 13.7 nM; in assay [1] (SKHEP1, control siRNA, read-out: Control siRNA 95% CI KSO), 8.58 to 11.3 nM; with BT549 cells (BT549, UBE2K siRNA knockdown, read-out: UBE2K siRNA 95% CI IC50), 91.2 to 243 nM; with BT549 cells (BT549, control siRNA, read-out: Control siRNA 95% CI KSO), 165 to 381 nM; in the assay with T47D cells (UBE2K siRNA knockdown, read-out: UBE2K siRNA 95% CI IC50), 96.1 to 220 nM; in the assay with T47D cells (control siRNA, read-out: Control siRNA 95% CI KSO) it was 112 to 290 nM.
For the compound `Cc1ccc(S(=O)(=O)/C=C/C#N)cc1` [BAY 11-7082, (E)3-[(4-Methylphenyl)sulfonyl]-2-propenenitrile], at UBE2K, the “Loading of ubiquitin onto E2 conjugating enzymes such as UBE2K” value is “inhibit the loading of ubiquitin onto E2 conjugating enzymes”.
